Measurements: US20220347175A1, “PYRIDAZINONE DERIVATIVE” (Sumitomo Dainippon Pharma Co., Ltd., priority 2018, published 2022)
Blank lines part the entries; values can stand above or below the compound they belong to.

Tests used:
human Nav1.5 = biological target: T1, human Nav1.5 (Homo sapiens, UniProt Q14524); assay: Amplification of Nav1.5-derived voltage-dependent sodium current (Nav1.5 current), cell line stably expressing human Nav1.5, automated patch clamp; assay type: cell-based; settings: for activation at 10 µM: read-out: Nav1.5 current amplification rate (%)
T1 construct: expressed in transfected cells; host or cells: CHO-K1 (T-REx System, ThermoFisher Scientific)

human Nav1.1 = biological target: T2, human Nav1.1 (Homo sapiens, UniProt P35498); assay: Amplification of Nav1.1-derived voltage-dependent sodium current (Nav1.1 current), cell line stably expressing human Nav1.1, automated patch clamp; assay type: cell-based; settings: for activation at 10 µM: read-out: Nav1.1 current amplification rate (%)
T2 construct: host or cells: HEK293
Summary of the method: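 Amplification rate (%) is 100 × post-compound/pre-compound Nav1.1 peak current or AUC, minus 100. Ramp-evoked sodium currents were recorded by automated patch clamp in a human Nav1.1 HEK293 stable line, restricted to cells exceeding 500 pA, with compounds added in extracellular solution containing 1% DMSO.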

[1] = 10 μmol/L compound, change of the area under the curve of Nav1.5 current (Test Result 1)
[2] = 10 μmol/L compound, change of the area under the curve of Nav1.1 current (Test Result 1)

T1 sequence (Q14524 1-2015 isoform Q14524-2): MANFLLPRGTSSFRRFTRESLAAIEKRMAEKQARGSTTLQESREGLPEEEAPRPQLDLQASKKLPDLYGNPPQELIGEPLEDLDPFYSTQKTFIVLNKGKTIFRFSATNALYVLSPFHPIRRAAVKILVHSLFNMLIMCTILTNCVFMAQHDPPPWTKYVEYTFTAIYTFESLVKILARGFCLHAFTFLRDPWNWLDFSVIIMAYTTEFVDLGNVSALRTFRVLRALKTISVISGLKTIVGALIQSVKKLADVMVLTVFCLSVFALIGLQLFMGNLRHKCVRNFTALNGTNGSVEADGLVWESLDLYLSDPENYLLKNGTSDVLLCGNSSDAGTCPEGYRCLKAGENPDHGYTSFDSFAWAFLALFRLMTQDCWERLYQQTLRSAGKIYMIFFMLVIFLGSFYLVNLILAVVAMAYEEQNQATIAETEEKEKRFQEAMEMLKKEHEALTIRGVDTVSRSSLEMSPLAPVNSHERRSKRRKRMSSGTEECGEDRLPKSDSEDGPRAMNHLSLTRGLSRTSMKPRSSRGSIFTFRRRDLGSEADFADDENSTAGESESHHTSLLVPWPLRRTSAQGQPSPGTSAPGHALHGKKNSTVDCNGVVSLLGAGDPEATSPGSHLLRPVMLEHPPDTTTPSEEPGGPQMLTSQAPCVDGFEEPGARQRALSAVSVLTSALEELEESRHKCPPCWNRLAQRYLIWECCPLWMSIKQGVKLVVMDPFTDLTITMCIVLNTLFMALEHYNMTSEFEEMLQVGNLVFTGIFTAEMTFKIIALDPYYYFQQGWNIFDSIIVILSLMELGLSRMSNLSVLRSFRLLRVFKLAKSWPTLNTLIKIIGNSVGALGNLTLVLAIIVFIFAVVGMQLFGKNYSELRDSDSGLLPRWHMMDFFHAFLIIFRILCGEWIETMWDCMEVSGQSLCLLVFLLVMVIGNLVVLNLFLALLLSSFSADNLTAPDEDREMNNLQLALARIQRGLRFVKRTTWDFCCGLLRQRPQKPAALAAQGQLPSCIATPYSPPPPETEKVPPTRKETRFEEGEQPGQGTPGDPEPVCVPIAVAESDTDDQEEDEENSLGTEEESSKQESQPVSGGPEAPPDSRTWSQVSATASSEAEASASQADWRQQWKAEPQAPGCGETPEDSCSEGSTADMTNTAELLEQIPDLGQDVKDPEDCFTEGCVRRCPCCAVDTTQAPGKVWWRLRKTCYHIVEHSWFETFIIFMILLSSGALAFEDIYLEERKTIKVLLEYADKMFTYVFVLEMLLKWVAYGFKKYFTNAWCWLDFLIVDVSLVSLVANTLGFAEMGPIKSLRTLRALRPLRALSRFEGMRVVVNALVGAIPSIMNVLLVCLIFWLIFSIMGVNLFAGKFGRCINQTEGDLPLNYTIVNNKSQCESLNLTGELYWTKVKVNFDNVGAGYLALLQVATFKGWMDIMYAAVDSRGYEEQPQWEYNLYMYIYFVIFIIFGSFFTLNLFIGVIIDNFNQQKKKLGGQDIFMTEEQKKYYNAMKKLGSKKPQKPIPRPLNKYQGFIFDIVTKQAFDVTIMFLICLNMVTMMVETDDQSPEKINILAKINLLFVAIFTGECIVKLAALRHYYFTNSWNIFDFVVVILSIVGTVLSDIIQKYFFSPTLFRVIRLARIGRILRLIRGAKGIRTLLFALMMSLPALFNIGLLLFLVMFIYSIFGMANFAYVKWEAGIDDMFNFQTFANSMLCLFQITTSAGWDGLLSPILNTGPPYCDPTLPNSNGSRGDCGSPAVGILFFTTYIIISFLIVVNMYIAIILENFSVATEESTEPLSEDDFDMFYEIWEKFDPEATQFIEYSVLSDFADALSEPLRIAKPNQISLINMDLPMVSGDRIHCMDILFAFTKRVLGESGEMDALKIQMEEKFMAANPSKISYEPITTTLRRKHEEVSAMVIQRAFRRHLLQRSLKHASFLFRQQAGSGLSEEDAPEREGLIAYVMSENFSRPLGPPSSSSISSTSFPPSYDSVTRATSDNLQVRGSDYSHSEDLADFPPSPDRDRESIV

- Nav1.1 current amplification rate (%) (human Nav1.1; compound 3 μmol/L, HEK293 stably expressing human Nav1.1): 345%
SMILES: O=C(Cn1nc(C2=CCC3(CC2)CC3(F)F)ccc1=O)N1CCc2c(N3CCOCC3)cccc21 (racemic) [Example 478]
- Nav1.5 current amplification rate (%) (human Nav1.5; compound 3 μmol/L, CHO-K1 stably expressing human Nav1.5): 23%

- Nav1.1 current amplification rate (%) (human Nav1.1; [2]): 219%
SMILES: COc1cc(C2=CCC(C(F)(F)F)CC2)nn(CC(=O)N2CCN(c3cncc(F)c3)CC2)c1=O (racemic) [Example 482]
- Nav1.5 current amplification rate (%) (human Nav1.5; [1]): 8%

- Nav1.1 current amplification rate (%) (human Nav1.1; [2]): 190%
SMILES: O=C(Cn1nc(C2=CCC(C(F)(F)F)CC2)ccc1=O)N1CCN(c2cncc(F)c2)CC1 (racemic) [Example 487]
- Nav1.5 current amplification rate (%) (human Nav1.5; [1]): 109%

- Nav1.1 current amplification rate (%) (human Nav1.1; [2]): 376%
SMILES: COc1cc(C2=CCC(C)CC2)nn(CC(=O)N2CCN(c3cncc(F)c3)CC2)c1=O (racemic) [Example 488]
- Nav1.5 current amplification rate (%) (human Nav1.5; [1]): 174%

- Nav1.1 current amplification rate (%) (human Nav1.1; [2]): 277%
SMILES: CC1CCC(c2ccc(=O)n(CC(=O)N3CCc4c(N5CCOCC5)cccc43)n2)CC1 (single isomer, unassigned) [Example 535]
- Nav1.5 current amplification rate (%) (human Nav1.5; [1]): 10%

- Nav1.1 current amplification rate (%) (human Nav1.1; [2]): 111%
SMILES: CC1CCN(c2ccc(=O)n(CC(=O)Nc3cccc(C#N)c3)n2)CC1 [Example 55]
- Nav1.5 current amplification rate (%) (human Nav1.5; [1]): 27%

- Nav1.1 current amplification rate (%) (human Nav1.1; [2]): 180%
SMILES: CC1CCN(c2ccc(=O)n(CC(=O)Nc3ccc(C(F)(F)F)nc3)n2)CC1 [Example 59]
- Nav1.5 current amplification rate (%) (human Nav1.5; [1]): 56%

- Nav1.1 current amplification rate (%) (human Nav1.1; [2]): 49%
SMILES: CC1CCN(c2ccc(=O)n(CC(=O)Nc3cncc(Cl)c3)n2)CC1 [Example 63]
- Nav1.5 current amplification rate (%) (human Nav1.5; [1]): 3%

- Nav1.1 current amplification rate (%) (human Nav1.1; [2]): 49%
SMILES: CC1CCN(c2ccc(=O)n(CC(=O)Nc3ccnc(N4CCOCC4)c3)n2)CC1 [Example 66]
- Nav1.5 current amplification rate (%) (human Nav1.5; [1]): 31%

- Nav1.1 current amplification rate (%) (human Nav1.1; [2]): 177%
SMILES: CC1CCN(c2ccc(=O)n(CC(=O)Nc3cccc(-n4ccnc4)c3)n2)CC1 [Example 67]
- Nav1.5 current amplification rate (%) (human Nav1.5; [1]): 18%

- Nav1.1 current amplification rate (%) (human Nav1.1; [2]): 69%
SMILES: CC1CCN(c2ccc(=O)n(CC(=O)Nc3ccc4oc(=O)n(C)c4c3)n2)CC1 [Example 81]
- Nav1.5 current amplification rate (%) (human Nav1.5; [1]): 21%

- Nav1.1 current amplification rate (%) (human Nav1.1; [2]): 121%
SMILES: CC1CCN(c2ccc(=O)n(CC(=O)Nc3ccc4oc(=O)[nH]c4c3)n2)CC1 [Example 82]
- Nav1.5 current amplification rate (%) (human Nav1.5; [1]): 5%

- Nav1.1 current amplification rate (%) (human Nav1.1; [2]): 315%
SMILES: Cc1noc2cc(NC(=O)Cn3nc(N4CCC(C)CC4)ccc3=O)ccc12 [Example 84]
- Nav1.5 current amplification rate (%) (human Nav1.5; [1]): 123%

- Nav1.1 current amplification rate (%) (human Nav1.1; [2]): 255%
SMILES: CC1CCN(c2ccc(=O)n(CC(=O)Nc3ccc4scnc4c3)n2)CC1 [Example 87]
- Nav1.5 current amplification rate (%) (human Nav1.5; [1]): 22%

- Nav1.1 current amplification rate (%) (human Nav1.1; [2]): 183%
SMILES: Cc1nc2cc(NC(=O)Cn3nc(N4CCC(C)CC4)ccc3=O)ccc2s1 [Example 88]
- Nav1.5 current amplification rate (%) (human Nav1.5; [1]): 31%

- Nav1.1 current amplification rate (%) (human Nav1.1; [2]): 105%
SMILES: Cc1cc(NC(=O)Cn2nc(N3CCC(C)CC3)ccc2=O)cc2ncoc12 [Example 96]
- Nav1.5 current amplification rate (%) (human Nav1.5; [1]): 7%

- Nav1.1 current amplification rate (%) (human Nav1.1; [2]): 296%
SMILES: CCc1nc2cc(NC(=O)Cn3nc(N4CCC(C)CC4)ccc3=O)ccc2o1 [Example 97]
- Nav1.5 current amplification rate (%) (human Nav1.5; [1]): 19%

- activation at 10 µM (human Nav1.1; [2]): 197%
SMILES: Cc1c(N2CCC(C)CC2)nn(CC(=O)Nc2ccc(C#N)nc2)c(=O)c1C [Example 100]
- activation at 10 µM (human Nav1.5; [1]): 56%

- activation at 10 µM (human Nav1.1; [2]): 58%
SMILES: O=C(Cn1nc(C2=CCC(F)(F)CC2)ccc1=O)Nc1ccc(C(F)(F)F)nc1 [Example 103]
- activation at 10 µM (human Nav1.5; [1]): 13%

Continued, compound first:

SMILES: COc1cc(C2=CCC(C(F)(F)F)CC2)nn(CC(=O)N2CCc3c(N4CCOCC4)cccc32)c1=O (racemic) [Example 474]
- Nav1.5 current amplification rate (%) (human Nav1.5; [1]): 26%
- Nav1.1 current amplification rate (%) (human Nav1.1; [2]): 235%

SMILES: COc1cc(=O)n(CC(=O)N2CCc3c(N4CCOCC4)cccc32)nc1C1=CCC(C(F)(F)F)CC1 (racemic) [Example 476]
- Nav1.5 current amplification rate (%) (human Nav1.5; [1]): 13%
- Nav1.1 current amplification rate (%) (human Nav1.1; [2]): 343%

SMILES: COc1cc(=O)n(CC(=O)N2CCN(c3cncc(F)c3)CC2)nc1C1=CCC(C(F)(F)F)CC1 (racemic) [Example 486]
- Nav1.5 current amplification rate (%) (human Nav1.5; [1]): 8%
- Nav1.1 current amplification rate (%) (human Nav1.1; [2]): 148%

SMILES: CC1CCN(c2ccc(=O)n(CC(=O)Nc3ccc4ocnc4c3)n2)CC1 [Example 50, N-(1,3-benzooxazol-5-yl)-2-[3-(4-methylpiperidin-1-yl)-6-oxopyridazin-1(6H)-yl]acetamide]
- activation at 10 µM (human Nav1.5; [1]): 4%
- activation at 10 µM (human Nav1.1; [2]): 155%

SMILES: CC1CCN(c2ccc(=O)n(CC(=O)Nc3ccc(C#N)nc3)n2)CC1 [Example 51]
- Nav1.5 current amplification rate (%) (human Nav1.5; [1]): 31%
- Nav1.1 current amplification rate (%) (human Nav1.1; [2]): 196%

SMILES: CC1CCN(c2ccc(=O)n(CC(=O)Nc3ccnc(C(F)(F)F)c3)n2)CC1 [Example 52]
- Nav1.5 current amplification rate (%) (human Nav1.5; [1]): 19%
- Nav1.1 current amplification rate (%) (human Nav1.1; [2]): 248%

SMILES: CC1CCN(c2ccc(=O)n(CC(=O)Nc3ccnc(C#N)c3)n2)CC1 [Example 53]
- Nav1.5 current amplification rate (%) (human Nav1.5; [1]): 11%
- Nav1.1 current amplification rate (%) (human Nav1.1; [2]): 161%

SMILES: CC1CCN(c2ccc(=O)n(CC(=O)Nc3cncc(C#N)c3)n2)CC1 [Example 60]
- Nav1.5 current amplification rate (%) (human Nav1.5; [1]): 21%
- Nav1.1 current amplification rate (%) (human Nav1.1; [2]): 57%

SMILES: CC1CCN(c2ccc(=O)n(CC(=O)Nc3cncc(C(F)(F)F)c3)n2)CC1 [Example 61]
- Nav1.5 current amplification rate (%) (human Nav1.5; [1]): 8%
- Nav1.1 current amplification rate (%) (human Nav1.1; [2]): 77%

SMILES: Cc1nc2cc(NC(=O)Cn3nc(N4CCC(C)CC4)ccc3=O)ccc2o1 [Example 69]
- Nav1.5 current amplification rate (%) (human Nav1.5; [1]): 0%
- Nav1.1 current amplification rate (%) (human Nav1.1; [2]): 137%

SMILES: Cc1noc2ccc(NC(=O)Cn3nc(N4CCC(C)CC4)ccc3=O)cc12 [Example 70]
- Nav1.5 current amplification rate (%) (human Nav1.5; [1]): 0%
- Nav1.1 current amplification rate (%) (human Nav1.1; [2]): 68%

SMILES: CC1CCN(c2ccc(=O)n(CC(=O)Nc3ccn4nccc4c3)n2)CC1 [Example 71]
- Nav1.5 current amplification rate (%) (human Nav1.5; [1]): 13%
- Nav1.1 current amplification rate (%) (human Nav1.1; [2]): 131%

SMILES: CC1CCN(c2ccc(=O)n(CC(=O)Nc3ccn4ccnc4c3)n2)CC1 [Example 72]
- Nav1.5 current amplification rate (%) (human Nav1.5; [1]): 3%
- Nav1.1 current amplification rate (%) (human Nav1.1; [2]): 119%

SMILES: CC1CCN(c2ccc(=O)n(CC(=O)Nc3ccc4ncoc4c3)n2)CC1 [Example 73]
- Nav1.5 current amplification rate (%) (human Nav1.5; [1]): 1%
- Nav1.1 current amplification rate (%) (human Nav1.1; [2]): 92%

SMILES: COc1cc(NC(=O)Cn2nc(N3CCC(C)CC3)ccc2=O)ccn1 [Example 74]
- Nav1.5 current amplification rate (%) (human Nav1.5; [1]): −2%
- Nav1.1 current amplification rate (%) (human Nav1.1; [2]): 70%

SMILES: CC1CCN(c2ccc(=O)n(CC(=O)Nc3cccc(-c4cnco4)c3)n2)CC1 [Example 77]
- Nav1.5 current amplification rate (%) (human Nav1.5; [1]): 28%
- Nav1.1 current amplification rate (%) (human Nav1.1; [2]): 93%

SMILES: CC1CCN(c2ccc(=O)n(CC(=O)Nc3cccc(-c4ncco4)c3)n2)CC1 [Example 78]
- Nav1.5 current amplification rate (%) (human Nav1.5; [1]): 4%
- Nav1.1 current amplification rate (%) (human Nav1.1; [2]): 78%

SMILES: CC1CCN(c2ccc(=O)n(CC(=O)Nc3ccc(C(=O)N4CCCC4)cc3)n2)CC1 [Example 79]
- Nav1.5 current amplification rate (%) (human Nav1.5; [1]): 4%
- Nav1.1 current amplification rate (%) (human Nav1.1; [2]): 165%

SMILES: CC1CCN(c2ccc(=O)n(CC(=O)Nc3cccc(-c4nccs4)c3)n2)CC1 [Example 80]
- Nav1.5 current amplification rate (%) (human Nav1.5; [1]): -3%
- Nav1.1 current amplification rate (%) (human Nav1.1; [2]): 131%

SMILES: CC1CCN(c2ccc(=O)n(CC(=O)Nc3ccc4c(c3)NC(=O)C4)n2)CC1 [Example 86]
- Nav1.5 current amplification rate (%) (human Nav1.5; [1]): 3%
- Nav1.1 current amplification rate (%) (human Nav1.1; [2]): 73%

SMILES: CC1CCN(c2ccc(=O)n(CC(=O)N3CCc4cc(N5CCOCC5)ccc43)n2)CC1 [Example 89]
- Nav1.5 current amplification rate (%) (human Nav1.5; [1]): 34%
- Nav1.1 current amplification rate (%) (human Nav1.1; [2]): 187%

SMILES: CC1CCN(c2ccc(=O)n(CC(=O)Nc3ccc4oc(N(C)C)nc4c3)n2)CC1 [Example 91]
- Nav1.5 current amplification rate (%) (human Nav1.5; [1]): 9%
- Nav1.1 current amplification rate (%) (human Nav1.1; [2]): 93%

SMILES: CC1CCN(c2ccc(=O)n(CC(=O)Nc3cc(Cl)c4ocnc4c3)n2)CC1 [Example 94]
- Nav1.5 current amplification rate (%) (human Nav1.5; [1]): 29%
- Nav1.1 current amplification rate (%) (human Nav1.1; [2]): 198%

SMILES: CC1CCN(c2ccc(=O)n(CC(=O)Nc3ccc4nsnc4c3)n2)CC1 [Example 95]
- Nav1.5 current amplification rate (%) (human Nav1.5; [1]): 18%
- Nav1.1 current amplification rate (%) (human Nav1.1; [2]): 221%

SMILES: CC1CCN(c2ccc(=O)n(CC(=O)Nc3ccc4c(c3)ncn4C)n2)CC1 [Example 98]
- Nav1.5 current amplification rate (%) (human Nav1.5; [1]): 4%
- Nav1.1 current amplification rate (%) (human Nav1.1; [2]): 15%

SMILES: COc1nc2cc(NC(=O)Cn3nc(N4CCC(C)CC4)ccc3=O)ccc2o1 [Example 99]
- Nav1.5 current amplification rate (%) (human Nav1.5; [1]): 4%
- Nav1.1 current amplification rate (%) (human Nav1.1; [2]): 103%
